Values joined by “and” are separate entries in the source; they are usually repeats but may differ in a detail not shown here. Equal entries are not always repeated.
Test system: 786-0 complex spheroid viability
Test: Anticancer human tumor 786-0 cell line growth inhibition;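 further: spheroids exposed to agents for seven days before readout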
Details: for viability, T/C: stronger effect = lower value
Outline: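 Drug combinations with the LSD1 inhibitor iadademstat tested on tumor cells co-cultured as spheroids with endothelial cells and mesenchymal stem cells. Concentrations descended in half-log increments from clinical Cmax or 10 microM.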

[1] = curve of first compound, second compound 0.1 µM
[2] = curve of first compound, second compound 0.316 µM
[3] = curve of first compound, second compound 1 µM
[4] = curve of first compound, second compound 3.16 µM
[5] = curve of first compound, second compound 10 µM
[6] = second compound 0.1 µM, first compound 0.00949 µM
[7] = second compound 0.1 µM, first compound 0.03 µM
[8] = second compound 0.1 µM, first compound 0.0949 µM
[9] = second compound 0.1 µM, first compound 0.3 µM
[10] = second compound 0.1 µM, first compound 0.949 µM
[11] = second compound 0.1 µM, first compound 3 µM
[12] = second compound 0.316 µM, first compound 0.00949 µM
[13] = second compound 0.316 µM, first compound 0.03 µM
[14] = second compound 0.316 µM, first compound 0.0949 µM
[15] = second compound 0.316 µM, first compound 0.3 µM
[16] = second compound 0.316 µM, first compound 0.949 µM
[17] = second compound 0.316 µM, first compound 3 µM
[18] = second compound 1 µM, first compound 0.00949 µM
[19] = second compound 1 µM, first compound 0.03 µM
[20] = second compound 1 µM, first compound 0.0949 µM
[21] = second compound 1 µM, first compound 0.3 µM
[22] = second compound 1 µM, first compound 0.949 µM
[23] = second compound 1 µM, first compound 3 µM
[24] = second compound 3.16 µM, first compound 0.00949 µM
[25] = second compound 3.16 µM, first compound 0.03 µM
[26] = second compound 3.16 µM, first compound 0.0949 µM
[27] = second compound 3.16 µM, first compound 0.3 µM
[28] = second compound 3.16 µM, first compound 0.949 µM
[29] = second compound 3.16 µM, first compound 3 µM
[30] = second compound 10 µM, first compound 0.00949 µM
[31] = second compound 10 µM, first compound 0.03 µM
[32] = second compound 10 µM, first compound 0.0949 µM
[33] = second compound 10 µM, first compound 0.3 µM
[34] = second compound 10 µM, first compound 0.949 µM
[35] = second compound 10 µM, first compound 3 µM

O=C(C=Cc1cccc(S(=O)(=O)Nc2ccccc2)c1)NO + NC1CCC(NC2CC2c2ccccc2)CC1
IC50 [1]: 942 nM
IC50 [2]: 1020 nM
IC50 [3]: 912 nM
IC50 [4]: 653 nM
IC50 [5]: 446 nM
viability, T/C [6]: 112%
viability, T/C [7]: 109%
viability, T/C [8]: 107%
viability, T/C [9]: 99.6%
viability, T/C [10]: 49.6%
viability, T/C [11]: 6.03%
viability, T/C [12]: 113%
viability, T/C [13]: 111%
viability, T/C [14]: 112%
viability, T/C [15]: 104%
viability, T/C [16]: 53.2%
viability, T/C [17]: 5.39%
viability, T/C [18]: 107%
viability, T/C [19]: 107%
viability, T/C [20]: 110%
viability, T/C [21]: 92.8%
viability, T/C [22]: 48.7%
viability, T/C [23]: 5.27%
viability, T/C [24]: 96%
viability, T/C [25]: 101%
viability, T/C [26]: 93.8%
viability, T/C [27]: 81.9%
viability, T/C [28]: 34.8%
viability, T/C [29]: 6.76%
viability, T/C [30]: 80.5%
viability, T/C [31]: 77%
viability, T/C [32]: 76.4%
viability, T/C [33]: 60.7%
viability, T/C [34]: 29.1%
viability, T/C [35]: 2.25%

CC1COCCN1c1cc(-c2ccnn2C)c2ccnc(-c3ccn[nH]3)c2n1 (stereo not given)
viability, T/C (compound 0.00316 µM): 101% and 93.8%
viability, T/C (compound 0.01 µM): 95.2% and 97.4%
viability, T/C (compound 0.0316 µM): 56.1% and 64.5%
viability, T/C (compound 0.1 µM): 23.4% and 27.1%
viability, T/C (compound 0.316 µM): 11.3% and 22.2%
viability, T/C (compound 1 µM): 12.7% and 18%
IC50 (curve of compound): 40 nM and 49.3 nM

CCN(c1cc(-c2ccc(CN3CCOCC3)cc2)cc(C(=O)NCc2c(C)cc(C)[nH]c2=O)c1C)C1CCOCC1 + NC1CCC(NC2CC2c2ccccc2)CC1
IC50 [1]: > 3000 nM
IC50 [2]: > 3000 nM
IC50 [3]: > 3000 nM
IC50 [4]: > 3000 nM
IC50 [5]: > 3000 nM
viability, T/C [6]: 121%
viability, T/C [7]: 122%
viability, T/C [8]: 117%
viability, T/C [9]: 114%
viability, T/C [10]: 114%
viability, T/C [11]: 111%
viability, T/C [12]: 119%
viability, T/C [13]: 118%
viability, T/C [14]: 114%
viability, T/C [15]: 116%
viability, T/C [16]: 109%
viability, T/C [17]: 106%
viability, T/C [18]: 116%
viability, T/C [19]: 114%
viability, T/C [20]: 115%
viability, T/C [21]: 109%
viability, T/C [22]: 105%
viability, T/C [23]: 106%
viability, T/C [24]: 111%
viability, T/C [25]: 105%
viability, T/C [26]: 109%
viability, T/C [27]: 110%
viability, T/C [28]: 97.2%
viability, T/C [29]: 105%
viability, T/C [30]: 87.2%
viability, T/C [31]: 90.2%
viability, T/C [32]: 91.2%
viability, T/C [33]: 96.5%
viability, T/C [34]: 88.3%
viability, T/C [35]: 89%

CC(C)CC(NC(=O)CNC(=O)c1cc(Cl)ccc1Cl)B1OC(=O)CC(CC(=O)O)(C(=O)O)O1 (stereo not given)
viability, T/C (compound 0.000316 µM): 108% and 107%
viability, T/C (compound 0.001 µM): 106% and 104%
viability, T/C (compound 0.00316 µM): 102% and 106%
viability, T/C (compound 0.01 µM): 49.1% and 64.2%
viability, T/C (compound 0.0316 µM): 30.4% and 36.4%
viability, T/C (compound 0.1 µM): 7.53% and 16.1%
IC50 (curve of compound): 11.5 nM and 17.9 nM

NC1CCC(NC2CC2c2ccccc2)CC1 (stereo not given)
viability, T/C (compound 0.1 µM): 114% [middle of 25 runs]
viability, T/C (compound 0.316 µM): 113% and 132%
viability, T/C (compound 1 µM): 112% [middle of 25 runs]
viability, T/C (compound 3.16 µM): 106% [middle of 25 runs]
viability, T/C (compound 10 µM): 85.4% [middle of 23 runs]
IC50 (compound alone, run of 11/29/2021): > 10000 nM

— PubChem BioAssay AID1918944 (Molecular Pharmacology Branch, DTP, NCI, 2023)
